{
  "source": "ChEMBL document CHEMBL5338791",
  "about": "“Discovery of Novel 1,3-Diphenylpyrazine Derivatives as Potent S-Phase Kinase-Associated Protein 2 (Skp2) Inhibitors for the Treatment of Cancer” (J Med Chem, 2023)",
  "key": {"PC-3 [1]": {"system": "PC-3", "assay": "Induction of cell cycle arrest in human PC-3 cells assessed as accumulation of cells at G2 phase at 10 uM incubated for 24 hrs by flow cytometry (reference value: 19.34 %)", "type": "functional"}, "[2]": {"assay": "Metabolic stability in rat liver S9 fraction assessed as half life at 20 umol/L preincubated for 5 mins followed by NADPH addition measured upto 60 mins by LC-MS/MS analysis", "type": "ADME, subcellular", "settings": "dose 20 µmol/L, time < 65 min"}, "MGC-803 [3]": {"system": "MGC-803", "assay": "Induction of apoptosis in human MGC-803 cells assessed as late apoptotic cells at 10 uM incubated for 48 hrs by annexin V-FITC/PI staining based flow cytometry (reference value: 0.95 %)", "type": "functional"}, "MCF7": {"system": "MCF7", "assay": "Antitumor activity against human MCF7 cells assessed as cell growth inhibition incubated for 72 hrs by MTT assay", "type": "functional, cell-based", "settings": "MCF7, 72 h"}, "PC-3 [4]": {"system": "PC-3", "assay": "Antitumor activity against human PC-3 cells xenografted in NOD-SCID mouse model assessed as tumor growth inhibition at 25 mg/kg, IG administered once every 2 days for 21 days relative to control", "type": "functional", "settings": "PC-3, po, 504 h, time 21 day, read-out: TGI"}, "MGC-803 [5]": {"system": "MGC-803", "assay": "Induction of apoptosis in human MGC-803 cells assessed as necrotic cells at 2.5 uM incubated for 48 hrs by annexin V-FITC/PI staining based flow cytometry (reference value: 0.89 %)", "type": "functional"}, "MGC-803 [6]": {"system": "MGC-803", "assay": "Inhibition of colony formation in human MGC-803 cells at 0.5 to 2 uM incubated for 10 days by crystal violet staining based microscopy", "type": "functional, cell-based", "settings": "dose 0.5-2 µM, time 10.0 day"}, "MGC-803 [7]": {"system": "MGC-803", "assay": "Induction of cell cycle arrest in human MGC-803 cells assessed as accumulation of cells at S phase at 5 uM incubated for 48 hrs by flow cytometry (reference value: 22.72 %)", "type": "functional"}, "MGC-803 [8]": {"system": "MGC-803", "assay": "Induction of apoptosis in human MGC-803 cells assessed as late apoptotic cells at 5 uM incubated for 48 hrs by annexin V-FITC/PI staining based flow cytometry (reference value: 0.95 %)", "type": "functional"}, "MGC-803 [9]": {"system": "MGC-803", "assay": "Induction of cell cycle arrest in human MGC-803 cells assessed as accumulation of cells at S phase at 2.5 uM incubated for 48 hrs by flow cytometry (reference value: 22.72 %)", "type": "functional"}, "MGC-803 [10]": {"system": "MGC-803", "assay": "Antitumor activity against human MGC-803 cells xenografted in NOD-SCID mouse model assessed as tumor growth inhibition at 10 to 50 mg/kg, IG administered once every 2 days for 21 days", "type": "functional, organism-based", "settings": "dose 10-50 mg/kg, time 21.0 day"}, "MGC-803 [11]": {"system": "MGC-803", "assay": "Induction of cell cycle arrest in human MGC-803 cells assessed as accumulation of cells at G2 phase at 10 uM incubated for 48 hrs by flow cytometry (reference value: 21.35 %)", "type": "functional"}, "MGC-803 [12]": {"system": "MGC-803", "assay": "Upregulation of p21 level in human MGC-803 cells at 10 uM incubated upto 48 hrs by Western blot analysis", "type": "functional, cell-based"}, "PC-3 [13]": {"system": "PC-3", "assay": "Induction of cell cycle arrest in human PC-3 cells assessed as accumulation of cells at G1 phase at 10 uM incubated for 12 hrs by flow cytometry (reference value: 56.81 %)", "type": "functional"}, "MGC-803 [14]": {"system": "MGC-803", "assay": "Induction of apoptosis in human MGC-803 cells assessed as necrotic cells at 5 uM incubated for 48 hrs by annexin V-FITC/PI staining based flow cytometry (reference value: 0.89 %)", "type": "functional"}, "MGC-803 [15]": {"system": "MGC-803", "assay": "Inhibition of cell migration in human MGC-803 cells by transwell invasion assay", "type": "functional, cell-based", "settings": "dose <= 2.0 µM"}, "PC-3 [16]": {"system": "PC-3", "assay": "Induction of cell cycle arrest in human PC-3 cells assessed as accumulation of cells at S phase at 10 uM incubated for 12 hrs by flow cytometry (reference value: 19.7 %)", "type": "functional"}, "[17]": {"assay": "Toxicity in NOD-SCID mouse model xenografted with human PC-3 cells assessed as change in kidney histology at 10 to 50 mg/kg, IG administered once every 2 days for 21 days by H and E staining based analysis", "type": "organism-based", "settings": "in vivo, po, 504 h, dose 10-50 mg/kg, time 21 day"}, "MGC-803 [18]": {"system": "MGC-803", "assay": "Induction of cell cycle arrest in human MGC-803 cells assessed as accumulation of cells at G1 phase at 10 uM incubated for 36 hrs by flow cytometry (reference value: 57.09 %)", "type": "functional"}, "[19]": {"assay": "Metabolic stability in mouse liver S9 fraction assessed as half life at 20 umol/L preincubated for 5 mins followed by NADPH addition measured upto 60 mins by LC-MS/MS analysis", "type": "ADME, subcellular", "settings": "dose 20 µmol/L, time < 65 min"}, "PC-3 [20]": {"system": "PC-3", "assay": "Antitumor activity against human PC-3 cells xenografted in NOD-SCID mouse model assessed as downregulation of Skp2 expression at 10 to 50 mg/kg, IG administered once every 2 days for 21 days by Western blot analysis", "type": "functional, organism-based", "settings": "dose 10-50 mg/kg, time 21.0 day"}, "MGC-803 [21]": {"system": "MGC-803", "assay": "Induction of cell cycle arrest in human MGC-803 cells assessed as accumulation of cells at G2 phase at 5 uM incubated for 48 hrs by flow cytometry (reference value: 21.35 %)", "type": "functional"}, "MGC-803 [22]": {"system": "MGC-803", "assay": "Induction of apoptosis in human MGC-803 cells assessed as nuclear condensation incubated for 48 hrs", "type": "functional, cell-based", "settings": "dose <= 10.0 µM"}, "[23]": {"target": "S-phase kinase-associated protein 2 (Homo sapiens, UniProt Q13309)", "sequence (Q13309 whole entry)": "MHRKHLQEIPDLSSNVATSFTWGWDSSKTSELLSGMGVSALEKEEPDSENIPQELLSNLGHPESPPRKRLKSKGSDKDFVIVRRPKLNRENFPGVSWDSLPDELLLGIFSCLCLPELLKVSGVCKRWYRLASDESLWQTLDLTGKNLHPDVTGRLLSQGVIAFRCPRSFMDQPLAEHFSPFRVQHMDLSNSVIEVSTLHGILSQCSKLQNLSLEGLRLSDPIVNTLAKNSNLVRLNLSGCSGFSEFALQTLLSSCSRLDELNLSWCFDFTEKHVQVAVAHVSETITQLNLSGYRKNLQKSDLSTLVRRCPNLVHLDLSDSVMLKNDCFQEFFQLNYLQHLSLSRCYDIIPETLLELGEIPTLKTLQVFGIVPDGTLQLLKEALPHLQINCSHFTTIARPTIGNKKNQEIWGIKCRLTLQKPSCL", "assay": "Inhibition of Skp2 in human MGC-803 cells treated with shRNA 5'-GGACCTATCGAACTCAGTTAT-3' incubated upto 48 hrs by Western blot analysis (reference value: 7 +/- 1.1 microM)", "type": "cell-based"}, "PC-3 [24]": {"system": "PC-3", "assay": "Induction of apoptosis in human PC-3 cells assessed as late apoptotic cells at 2.5 uM incubated for 48 hrs by annexin V-FITC/PI staining based flow cytometry (reference value: 0.45 %)", "type": "functional"}, "PC-3 [25]": {"system": "PC-3", "assay": "Antitumor activity against human PC-3 cells xenografted in NOD-SCID mouse model assessed as increase in apoptosis in tumor tissue at 10 to 50 mg/kg, IG administered once every 2 days for 21 days by TUNEL staining based analysis", "type": "functional, organism-based", "settings": "dose 10-50 mg/kg, time 21.0 day"}, "PC-3 [26]": {"system": "PC-3", "assay": "Induction of cell cycle arrest in human PC-3 cells assessed as accumulation of cells at G2 phase at 10 uM incubated for 36 hrs by flow cytometry (reference value: 19.34 %)", "type": "functional"}, "[27]": {"assay": "AUClast in plasma of NOD-SCID mouse model xenografted with human PC-3 cells at 25 mg/kg, IG measured upto 48 hrs by LC-MS/MS analysis", "type": "ADME, organism-based", "set-up": "dose 25 mg/kg, time < 48 hrs, route ig", "settings": "po"}, "MGC-803 [28]": {"system": "MGC-803", "assay": "Induction of apoptosis in human MGC-803 cells assessed as cell shrinkage incubated for 48 hrs", "type": "functional, cell-based", "settings": "dose <= 10.0 µM"}, "PC-3 [29]": {"system": "PC-3", "assay": "Induction of cell cycle arrest in human PC-3 cells assessed as accumulation of cells at S phase at 10 uM incubated for 48 hrs by flow cytometry (reference value: 19.7 %)", "type": "functional"}, "PC-3 [30]": {"system": "PC-3", "assay": "Antitumor activity against human PC-3 cells xenografted in NOD-SCID mouse model assessed as tumor growth inhibition at 10 mg/kg, IG administered once every 2 days for 21 days relative to control", "type": "functional", "settings": "PC-3, po, 504 h, time 21 day, read-out: TGI"}, "MGC-803 [31]": {"system": "MGC-803", "assay": "Induction of cell cycle arrest in human MGC-803 cells assessed as accumulation of cells at S phase at 10 uM incubated for 12 hrs by flow cytometry (reference value: 20.41 %)", "type": "functional"}, "NCI-H1299": {"system": "NCI-H1299", "assay": "Antitumor activity against human NCI-H1299 cells assessed as cell growth inhibition incubated for 72 hrs by MTT assay", "type": "functional, cell-based", "settings": "NCI-H1299, 72 h"}, "PC-3 [32]": {"system": "PC-3", "assay": "Antitumor activity against human PC-3 cells xenografted in NOD-SCID mouse model assessed as downregulation of ki67 level at 10 to 50 mg/kg, IG administered once every 2 days for 21 days by Western blot analysis", "type": "functional, organism-based", "settings": "dose 10-50 mg/kg, time 21.0 day"}},
  "note": "Calls of active or inactive are those of the source. The rule behind the calls is not given here.",
  "data": [
    {"smiles": "O=C(CCl)NC1CCN(c2cnc(-c3ccccc3)c(-c3ccccc3)n2)CC1", "values": [
      {"measurement": "Activity", "setting": "PC-3 [1]", "value": 15.19, "unit": "%"},
      {"measurement": "half-life at 20 µM", "setting": "[2]", "value": 15.4, "unit": "min"},
      {"measurement": "Activity", "setting": "MGC-803 [3]", "value": 24.9, "unit": "%"},
      {"measurement": "IC50", "setting": "MCF7", "value": 4.4, "unit": "µM"},
      {"measurement": "inhibition in vivo at 25 mg/kg", "setting": "PC-3 [4]", "value": 71.9, "unit": "%"},
      {"measurement": "Activity", "setting": "MGC-803 [5]", "value": 1.02, "unit": "%"},
      {"measurement": "inhibition", "setting": "MGC-803 [6]", "value": "Active"},
      {"measurement": "Activity", "setting": "MGC-803 [7]", "value": 35.78, "unit": "%"},
      {"measurement": "Activity", "setting": "MGC-803 [8]", "value": 12.3, "unit": "%"},
      {"measurement": "Activity", "setting": "MGC-803 [9]", "value": 26.89, "unit": "%"},
      {"measurement": "TGI", "setting": "MGC-803 [10]", "value": "Active"},
      {"measurement": "Activity", "setting": "MGC-803 [11]", "value": 14.35, "unit": "%"},
      {"measurement": "Activity", "setting": "MGC-803 [12]", "value": "Active"},
      {"measurement": "Activity", "setting": "PC-3 [13]", "value": 44.95, "unit": "%"},
      {"measurement": "Activity", "setting": "MGC-803 [14]", "value": 1.27, "unit": "%"},
      {"measurement": "inhibition", "setting": "MGC-803 [15]", "value": "Dose-Dependent Effect"},
      {"measurement": "Activity", "setting": "PC-3 [16]", "value": 32.51, "unit": "%"},
      {"measurement": "Activity", "setting": "[17]", "value": "Non-Toxic"},
      {"measurement": "Activity", "setting": "MGC-803 [18]", "value": 35.48, "unit": "%"},
      {"measurement": "half-life at 20 µM", "setting": "[19]", "value": 16.5, "unit": "min"},
      {"measurement": "Activity", "setting": "PC-3 [20]", "value": "Active"},
      {"measurement": "Activity", "setting": "MGC-803 [21]", "value": 18.74, "unit": "%"},
      {"measurement": "Activity", "setting": "MGC-803 [22]", "value": "Dose-Dependent Effect"},
      {"measurement": "IC50", "setting": "[23]", "value": 39.2, "unit": "µM"},
      {"measurement": "Activity", "setting": "PC-3 [24]", "value": 4.97, "unit": "%"},
      {"measurement": "Activity", "setting": "PC-3 [25]", "value": "Active"},
      {"measurement": "Activity", "setting": "PC-3 [26]", "value": 20.75, "unit": "%"},
      {"measurement": "AUC(0-t) at 48 h", "setting": "[27]", "value": 3230, "unit": "ng·h/mL"},
      {"measurement": "Activity", "setting": "MGC-803 [28]", "value": "Dose-Dependent Effect"},
      {"measurement": "Activity", "setting": "PC-3 [29]", "value": 44.19, "unit": "%"},
      {"measurement": "inhibition in vivo at 10 mg/kg", "setting": "PC-3 [30]", "value": 55.7, "unit": "%"},
      {"measurement": "Activity", "setting": "MGC-803 [31]", "value": 31.88, "unit": "%"},
      {"measurement": "IC50", "setting": "NCI-H1299", "value": 7.1, "unit": "µM"},
      {"measurement": "Activity", "setting": "PC-3 [32]", "value": "Active"}
    ]}
  ]
}
